According to the supplement of paper PMC11451515:

Test system: P12-Ichikawa
Assay: cell viability relative to DMSO control; higher = less cytotoxic
Details: 48 h
Outline: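 Viability is expressed as a percentage of DMSO wells within each plate, and cell-free wells serve as background. Seeding densities in the 1536-well plates (5 μl) were 500 cells/well for NOMO1 or SEM leukemia cells and 1000 cells/well for P12-Ichikawa. Each line was adapted for at least four passages in each medium. Library compounds in DMSO were pin-dosed at 47 μM to 0.79 nM (11 points, threefold), and CellTiter-Glo One luminescence was read after 48 h at 37°C.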

[1] = HPLM + 10% dialyzed FBS, 0.000781 µM
[2] = HPLM + 10% dialyzed FBS, 0.00234 µM
[3] = HPLM + 10% dialyzed FBS, 0.00702 µM
[4] = HPLM + 10% dialyzed FBS, 0.0211 µM
[5] = HPLM + 10% dialyzed FBS, 0.0632 µM
[6] = HPLM + 10% dialyzed FBS, 0.19 µM
[7] = HPLM + 10% dialyzed FBS, 0.569 µM
[8] = HPLM + 10% dialyzed FBS, 1.71 µM
[9] = HPLM + 10% dialyzed FBS, 5.12 µM
[10] = HPLM + 10% dialyzed FBS, 15.4 µM
[11] = HPLM + 10% dialyzed FBS, 46.1 µM
[12] = RPMI 5 mM glucose + 10% FBS, 0.000781 µM
[13] = RPMI 5 mM glucose + 10% FBS, 0.00234 µM
[14] = RPMI 5 mM glucose + 10% FBS, 0.00702 µM
[15] = RPMI 5 mM glucose + 10% FBS, 0.0211 µM
[16] = RPMI 5 mM glucose + 10% FBS, 0.0632 µM
[17] = RPMI 5 mM glucose + 10% FBS, 0.19 µM
[18] = RPMI 5 mM glucose + 10% FBS, 0.569 µM
[19] = RPMI 5 mM glucose + 10% FBS, 1.71 µM
[20] = RPMI 5 mM glucose + 10% FBS, 5.12 µM
[21] = RPMI 5 mM glucose + 10% FBS, 15.4 µM
[22] = RPMI 5 mM glucose + 10% FBS, 46.1 µM
[23] = RPMI 5 mM glucose + 10% dialyzed FBS, 0.000781 µM
[24] = RPMI 5 mM glucose + 10% dialyzed FBS, 0.00234 µM
[25] = RPMI 5 mM glucose + 10% dialyzed FBS, 0.00702 µM
[26] = RPMI 5 mM glucose + 10% dialyzed FBS, 0.0211 µM
[27] = RPMI 5 mM glucose + 10% dialyzed FBS, 0.0632 µM
[28] = RPMI 5 mM glucose + 10% dialyzed FBS, 0.19 µM
[29] = RPMI 5 mM glucose + 10% dialyzed FBS, 0.569 µM
[30] = RPMI 5 mM glucose + 10% dialyzed FBS, 1.71 µM
[31] = RPMI 5 mM glucose + 10% dialyzed FBS, 5.12 µM
[32] = RPMI 5 mM glucose + 10% dialyzed FBS, 15.4 µM
[33] = RPMI 5 mM glucose + 10% dialyzed FBS, 46.1 µM

| Compound | cell viability [1] [%] | cell viability [2] [%] | cell viability [3] [%] | cell viability [4] [%] | cell viability [5] [%] | cell viability [6] [%] | cell viability [7] [%] | cell viability [8] [%] | cell viability [9] [%] | cell viability [10] [%] | cell viability [11] [%] | cell viability [12] [%] | cell viability [13] [%] | cell viability [14] [%] | cell viability [15] [%] | cell viability [16] [%] | cell viability [17] [%] | cell viability [18] [%] | cell viability [19] [%] | cell viability [20] [%] | cell viability [21] [%] | cell viability [22] [%] | cell viability [23] [%] | cell viability [24] [%] | cell viability [25] [%] | cell viability [26] [%] | cell viability [27] [%] | cell viability [28] [%] | cell viability [29] [%] | cell viability [30] [%] | cell viability [31] [%] | cell viability [32] [%] | cell viability [33] [%] |
| --- | --- | --- | --- | --- | --- | --- | --- | --- | --- | --- | --- | --- | --- | --- | --- | --- | --- | --- | --- | --- | --- | --- | --- | --- | --- | --- | --- | --- | --- | --- | --- | --- | --- |
| Cc1nc(-c2ccc(-c3ccc(C(=O)N4CCc5cc6c(cc54)C4(CCN(C)CC4)CO6)cc3)c(C)c2)no1 | 106 | 114 | 111 | 116 | 122 | 111 | 121 | 123 | 119 | 119 | 120 | 107 | 112 | 106 | 116 | 117 | 114 | 123 | 115 | 121 | 124 | 118 | 107 | 107 | 113 | 116 | 110 | 121 | 120 | 116 | 115 | 121 | 126 |
| Nc1cc(N2CCCCC2)nc(N)[n+]1[O-] | 114 | 125 | 122 | 118 | 120 | 127 | 131 | 125 | 122 | 119 | 122 | 125 | 128 | 121 | 134 | 127 | 123 | 131 | 127 | 131 | 134 | 127 | 113 | 124 | 111 | 125 | 121 | 114 | 125 | 129 | 121 | 113 | 117 |
| CN(C)C(=O)[C@H](O)[C@H](Cc1ccccc1)NC(=O)c1cc2cc(Cl)ccc2[nH]1 | 98.8 | 110 | 111 | 114 | 119 | 115 | 122 | 127 | 119 | 80.3 | 43.4 | 95.3 | 112 | 109 | 117 | 119 | 130 | 130 | 130 | 113 | 68.6 | 51.5 | 99.5 | 118 | 118 | 119 | 121 | 131 | 125 | 133 | 127 | 94 | 70 |
| CC(O)(C[S+](=O)([O-])c1ccc(F)cc1)C(=O)Nc1ccc(C#N)c(C(F)(F)F)c1 (stereo not given) | 94.8 | 85.9 | 97.2 | 96.8 | 93.7 | 100 | 102 | 101 | 95.6 | 102 | 69.9 | 84.6 | 92.9 | 92.3 | 93.9 | 94.5 | 91.1 | 93.2 | 98.9 | 90.3 | 88.9 | 52.7 | 78.3 | 85.5 | 90.9 | 90.3 | 95.9 | 86.2 | 98.2 | 96.2 | 90.4 | 74 | 49.4 |
| N#CC1(c2cccc(C(=O)Nc3cc(Oc4ccc5nc(NC(=O)C6CC6)sc5n4)ccc3F)c2Cl)CC1 | 114 | 111 | 115 | 115 | 112 | 108 | 97 | 72.8 | 66.7 | 29 | 21.1 | 110 | 114 | 110 | 108 | 108 | 106 | 81.2 | 74.7 | 59.3 | 34.3 | 13.4 | 105 | 113 | 118 | 117 | 115 | 115 | 90.5 | 69 | 57.6 | 38.7 | 23.7 |
| CC(C)[C@H]1C(=O)N[C@H](CO)Cc2c[nH]c3cccc(c23)N1C | 87.3 | 96 | 98.3 | 108 | 110 | 99.2 | 92.2 | 88.1 | 74.2 | 83.9 | 88.8 | 91.5 | 98.8 | 104 | 105 | 110 | 98.9 | 76.9 | 75.4 | 63.7 | 65.4 | 74.5 | 87 | 99.7 | 97.9 | 101 | 107 | 90.3 | 79.1 | 70.6 | 58 | 64.5 | 65.3 |
| Nc1nccc(-c2ccc3noc(-c4ccc(Cl)cc4)c3c2)n1 | 124 | 124 | 131 | 129 | 120 | 124 | 128 | 120 | 122 | 115 | 118 | – | – | – | – | – | – | – | – | – | – | – | 116 | 119 | 122 | 123 | 117 | 115 | 110 | 123 | 115 | 105 | 110 |
| Cc1cccc(-c2[nH]c(C(C)(C)C)nc2-c2ccc3nccnc3c2)n1 | 120 | 124 | 124 | 126 | 125 | 120 | 118 | 110 | 112 | 112 | 48 | 122 | 122 | 115 | 116 | 124 | 121 | 108 | 119 | 106 | 106 | 81.4 | – | – | – | – | – | – | – | – | – | – | – |
| CC(C)(Sc1cc(C(C)(C)C)c(O)c(C(C)(C)C)c1)Sc1cc(C(C)(C)C)c(O)c(C(C)(C)C)c1 | 88.5 | 84.4 | 90 | 96.2 | 94.1 | 91 | 95.7 | 89.4 | 97 | 99.7 | 99.9 | 80.2 | 77.9 | 87.2 | 85.6 | 83.9 | 92.8 | 93.7 | 85.4 | 79.2 | 92.8 | 92.8 | 79.2 | 85.3 | 82.3 | 85.6 | 87.8 | 87.6 | 84.7 | 87.2 | 81.3 | 81.2 | 88.4 |
| CC1=CC/2=C(C=C1C)N(C[C@@H](O)[C@@H](O)[C@@H](O)CO)C/3=N/C(=O)NC(=O)C3=N2 | 118 | 123 | 117 | 116 | 120 | 129 | 113 | 109 | 115 | 103 | 107 | – | – | – | – | – | – | – | – | – | – | – | 122 | 122 | 121 | 132 | 123 | 121 | 118 | 113 | 108 | 105 | 102 |
| COc1cc2c(cc1OC)CN(CCc1ccc(NC(=O)c3cccc4c(=O)c5cccc(OC)c5[nH]c34)cc1)CC2 | 101 | 105 | 107 | 118 | 111 | 112 | 123 | 21.1 | 11.5 | 5 | 3.03 | 96.9 | 101 | 102 | 111 | 109 | 112 | 113 | 119 | 25.2 | 5.14 | 2.82 | 104 | 109 | 112 | 111 | 113 | 121 | 110 | 103 | 20 | 6.37 | 2.85 |
| C=C1CCC2[C@](C)(CO)C(O)CC[C@]2(C)C1C/C=C1/C(=O)OCC1O (stereo not given in full) | 122 | 124 | 122 | 114 | 121 | 117 | 104 | 103 | 106 | 114 | 115 | 115 | 112 | 118 | 106 | 114 | 110 | 108 | 109 | 107 | 98.6 | 107 | 120 | 115 | 124 | 115 | 116 | 111 | 109 | 103 | 98.7 | 110 | 106 |
| CCC(=O)NC[C@H](Cc1ccc(OCCc2nc(-c3ccccc3)oc2C)cc1)N/C(C)=C\C(=O)c1ccc(C(F)(F)F)cc1 | 102 | 97.6 | 93.8 | 104 | 109 | 106 | 91.1 | 99.1 | 76 | 35 | 8.82 | 95.8 | 98 | 103 | 112 | 106 | 110 | 77.7 | 105 | 66.7 | 50.4 | 7.18 | 98.3 | 99.4 | 100 | 104 | 99.3 | 99.7 | 83.6 | 86.8 | 62.1 | 53.3 | 11.8 |
| Clc1ccc(CCC(Cn2ccnc2)Sc2c(Cl)cccc2Cl)cc1 (stereo not given) | 92.8 | 92.5 | 96 | 90.2 | 93.9 | 102 | 101 | 94.7 | 91.9 | 91.2 | 91.5 | 90 | 94.6 | 96 | 103 | 99.8 | 94.8 | 87.8 | 96 | 91.1 | 91.9 | 63.2 | 81.1 | 72.8 | 84.4 | 95.1 | 84.6 | 86.4 | 90.1 | 83.7 | 89.1 | 90.1 | 64.7 |
| COCCCC/C(=N\OCCN)c1ccc(C(F)(F)F)cc1 | 98.4 | 87.1 | 91.2 | 91 | 94.9 | 80.8 | 74.4 | 85 | 80.9 | 72.2 | 63.5 | 83.5 | 81.8 | 91.7 | 79.8 | 95.8 | 72 | 62.2 | 83.2 | 80.3 | 67 | 41.9 | 79.8 | 80.7 | 76.9 | 84.6 | 84.4 | 80.3 | 77.9 | 78.8 | 74.5 | 77.2 | 52.7 |
| NC(=O)N1CCC(CC(=O)N2CCC([C@H]3c4ncc(Br)cc4CCc4cc(Cl)cc(Br)c43)CC2)CC1 | 107 | 116 | 114 | 114 | 114 | 108 | 96.9 | 95.2 | 78.6 | 71.9 | 52.9 | 107 | 104 | 125 | 121 | 117 | 106 | 87.6 | 85.9 | 75.4 | 62.9 | 42.5 | 108 | 108 | 118 | 112 | 109 | 110 | 94.6 | 90 | 78.9 | 69.7 | 42.2 |
